Data taken from ChEMBL document CHEMBL1201862, “PubChem BioAssay data set” (2004).
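96-well plates; 48 h exposure; 5 concentrations. Endpoints by linear interpolation between flanking doses. Not reached: highest tested concentration assigned. GI50 = concentration required for 50% inhibition of growth.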 Activity calls are given as the source filed them. No stated cut-off is given here; in the data, active = GI50 up to about 1.1 µM and inactive = higher.

Legend:
Test in all cases: growth of human tumour cells (NCI), 48 h
NCI-H226 = system: NCI-H226
NCI-H460 = system: NCI-H460
PC-3 = system: PC-3
U-251 = system: U-251
CCRF-CEM = system: CCRF-CEM
MCF7 = system: MCF7
BT-549 = system: BT-549
HOP-92 = system: HOP-92
SR = system: SR
SF-539 = system: SF-539
UACC-62 = system: UACC-62
HCT-15 = system: HCT-15
A498 = system: A498
OVCAR-5 = system: OVCAR-5
SF-295 = system: SF-295
HCT-116 = system: HCT-116
RXF 393 = system: RXF 393
COLO 205 = system: COLO 205
HT-29 = system: HT-29
NCI/ADR-RES = system: NCI/ADR-RES
MOLT-4 = system: MOLT-4
M14 = system: M14
SK-MEL-5 = system: SK-MEL-5
DU-145 = system: DU-145
SF-268 = system: SF-268
SNB-75 = system: SNB-75
HOP-62 = system: HOP-62
MDA-N = system: MDA-N
ACHN = system: ACHN
SK-OV-3 = system: SK-OV-3
A549 = system: A549
EKVX = system: EKVX
UACC-257 = system: UACC-257
KM12 = system: KM12
SW-620 = system: SW-620
OVCAR-3 = system: OVCAR-3
Hs-578T = system: Hs-578T
SK-MEL-28 = system: SK-MEL-28
HCC 2998 = system: HCC 2998
UO-31 = system: UO-31
Malme-3M = system: Malme-3M
SNB-19 = system: SNB-19
K562 = system: K562
TK-10 = system: TK-10
NCI-H23 = system: NCI-H23
SN12C = system: SN12C
IGROV-1 = system: IGROV-1
NCI-H522 = system: NCI-H522
OVCAR-8 = system: OVCAR-8
T47D = system: T47D
MDA-MB-435 = system: MDA-MB-435
786-0 = system: 786-0
CAKI-1 = system: CAKI-1
OVCAR-4 = system: OVCAR-4
MDA-MB-231 = system: MDA-MB-231
RPMI-8226 = system: RPMI-8226
HL-60 = system: HL-60
SK-MEL-2 = system: SK-MEL-2
LOX IMVI = system: LOX IMVI

With `O=C(CC(C(=O)c1cccs1)c1ccsc1)c1cccs1` (configuration not stated) the GI50 (NCI-H226) was > 100 µM (inactive), the GI50 (NCI-H460) was 43.9 µM (inactive) and the GI50 (PC-3) was 45.2 µM (inactive). For the same compound, the GI50 (U-251) was > 100 µM (inactive), the GI50 (CCRF-CEM) was 37.8 µM (inactive) and the GI50 (MCF7) was 52.2 µM (inactive). For the same compound, the GI50 (BT-549) was 81.8 µM (inactive), the GI50 (HOP-92) was 94.2 µM (inactive) and the GI50 (SR) was 36 µM (inactive). The GI50 (SF-539) was > 100 µM (inactive), the GI50 (UACC-62) was 62.1 µM (inactive) and the GI50 (HCT-15) was 71.3 µM. For the same compound, the GI50 (A498) was 38.6 µM (inactive), the GI50 (OVCAR-5) was > 100 µM (inactive) and the GI50 (SF-295) was 42 µM (inactive). The GI50 (HCT-116) was 29.9 µM (inactive), the GI50 (RXF 393) was 53.6 µM (inactive) and the GI50 (COLO 205) was 75.2 µM (inactive). For the same compound, the GI50 (HT-29) was > 100 µM (inactive), the GI50 (NCI/ADR-RES) was 31.9 µM (inactive) and the GI50 (MOLT-4) was 46.7 µM (inactive). For the same compound, the GI50 (M14) was > 10 µM (inactive), the GI50 (SK-MEL-5) was 47.3 µM (inactive) and the GI50 (DU-145) was > 100 µM (inactive). For the same compound, the GI50 (SF-268) was > 100 µM (inactive), the GI50 (SNB-75) was 12.8 µM (inactive) and the GI50 (HOP-62) was > 100 µM (inactive). The GI50 (MDA-N) was 25.8 µM (inactive), the GI50 (ACHN) was > 100 µM (inactive) and the GI50 (SK-OV-3) was 61.9 µM (inactive). The GI50 (A549) was 91 µM (inactive), the GI50 (EKVX) was 28.8 µM (inactive) and the GI50 (UACC-257) was > 100 µM (inactive). For the same compound, the GI50 (KM12) was 71.3 µM (inactive), the GI50 (SW-620) was 81.7 µM (inactive) and the GI50 (OVCAR-3) was 45 µM (inactive). The GI50 (Hs-578T) was > 100 µM (inactive), the GI50 (SK-MEL-28) was 81.5 µM (inactive) and the GI50 (HCC 2998) was 83.9 µM (inactive). The GI50 (UO-31) was 51.3 µM (inactive), the GI50 (Malme-3M) was > 100 µM (inactive) and the GI50 (SNB-19) was > 100 µM (inactive). For the same compound, the GI50 (K562) was 37.8 µM (inactive), the GI50 (TK-10) was > 100 µM (inactive) and the GI50 (NCI-H23) was > 100 µM (inactive). For the same compound, the GI50 (SN12C) was > 100 µM (inactive), the GI50 (IGROV-1) was > 100 µM (inactive) and the GI50 (NCI-H522) was 54.2 µM (inactive). The GI50 (OVCAR-8) was > 100 µM (inactive), the GI50 (T47D) was 26.3 µM (inactive) and the GI50 (MDA-MB-435) was 29.1 µM (inactive). The GI50 (786-0) was > 100 µM (inactive), the GI50 (CAKI-1) was > 100 µM (inactive) and the GI50 (OVCAR-4) was 79.8 µM (inactive). The GI50 (MDA-MB-231) was > 100 µM (inactive).
`COc1ccc(CC(=O)N2CCC3(C)CC(=O)CC=C23)cc1OC` (configuration not stated) was tested, and the GI50 (NCI-H226) was > 100 µM (inactive), the GI50 (PC-3) was > 100 µM (inactive) and the GI50 (U-251) was > 100 µM (inactive). For the same compound, the GI50 (MCF7) was > 100 µM (inactive), the GI50 (BT-549) was > 100 µM (inactive) and the GI50 (RPMI-8226) was > 100 µM (inactive). For the same compound, the GI50 (HOP-92) was > 100 µM (inactive), the GI50 (SR) was > 100 µM (inactive) and the GI50 (SF-539) was > 100 µM (inactive). For the same compound, the GI50 (UACC-62) was > 100 µM (inactive), the GI50 (HCT-15) was > 100 µM and the GI50 (A498) was > 100 µM (inactive). For the same compound, the GI50 (OVCAR-5) was > 100 µM (inactive), the GI50 (SF-295) was > 100 µM (inactive) and the GI50 (HCT-116) was > 100 µM (inactive). The GI50 (RXF 393) was > 100 µM (inactive), the GI50 (HL-60) was > 100 µM (inactive) and the GI50 (COLO 205) was > 100 µM (inactive). The GI50 (HT-29) was > 100 µM (inactive), the GI50 (NCI/ADR-RES) was > 100 µM (inactive) and the GI50 (MOLT-4) was > 100 µM (inactive). For the same compound, the GI50 (M14) was > 100 µM (inactive), the GI50 (SK-MEL-5) was > 100 µM (inactive) and the GI50 (DU-145) was > 100 µM (inactive). For the same compound, the GI50 (SF-268) was > 100 µM (inactive), the GI50 (HOP-62) was 93.8 µM (inactive) and the GI50 (MDA-N) was > 100 µM (inactive). For the same compound, the GI50 (ACHN) was > 100 µM (inactive), the GI50 (SK-OV-3) was > 100 µM (inactive) and the GI50 (A549) was > 100 µM (inactive). For the same compound, the GI50 (EKVX) was > 100 µM (inactive), the GI50 (KM12) was > 100 µM (inactive) and the GI50 (SW-620) was > 100 µM (inactive). For the same compound, the GI50 (OVCAR-3) was > 100 µM (inactive), the GI50 (Hs-578T) was > 100 µM (inactive) and the GI50 (SK-MEL-28) was > 100 µM (inactive). The GI50 (UO-31) was > 100 µM (inactive), the GI50 (Malme-3M) was > 100 µM (inactive) and the GI50 (SNB-19) was > 100 µM (inactive). For the same compound, the GI50 (SK-MEL-2) was > 100 µM (inactive), the GI50 (K562) was > 100 µM (inactive) and the GI50 (TK-10) was < 0.01 µM (active). The GI50 (NCI-H23) was > 100 µM (inactive), the GI50 (SN12C) was > 100 µM (inactive) and the GI50 (IGROV-1) was > 100 µM (inactive). For the same compound, the GI50 (NCI-H522) was 33.6 µM (inactive), the GI50 (OVCAR-8) was > 100 µM (inactive) and the GI50 (T47D) was > 100 µM (inactive). For the same compound, the GI50 (MDA-MB-435) was > 100 µM (inactive), the GI50 (786-0) was > 100 µM (inactive) and the GI50 (CAKI-1) was > 100 µM (inactive). The GI50 (LOX IMVI) was > 100 µM (inactive), the GI50 (OVCAR-4) was > 100 µM (inactive) and the GI50 (MDA-MB-231) was > 100 µM (inactive).
In the case of `CCOC(=O)c1cc(C2CCN(c3ccccc3)C2=O)c(C(=O)/C=C(/C)O)[nH]1` (configuration not stated), the GI50 (NCI-H226) is reported as > 100 µM (inactive), the GI50 (NCI-H460) is reported as > 100 µM (inactive) and the GI50 (PC-3) is reported as 88.3 µM (inactive). The GI50 (U-251) was > 100 µM (inactive), the GI50 (CCRF-CEM) was 59.6 µM (inactive) and the GI50 (MCF7) was 59.8 µM (inactive). The GI50 (BT-549) was 61.2 µM (inactive), the GI50 (RPMI-8226) was 48.9 µM (inactive) and the GI50 (SR) was 34.1 µM (inactive). The GI50 (SF-539) was 8.38 µM (inactive), the GI50 (UACC-62) was 82 µM (inactive) and the GI50 (HCT-15) was 51.6 µM. The GI50 (A498) was > 100 µM (inactive), the GI50 (OVCAR-5) was > 100 µM (inactive) and the GI50 (SF-295) was 70.8 µM (inactive). The GI50 (HCT-116) was 65.8 µM (inactive), the GI50 (RXF 393) was 21.6 µM (inactive) and the GI50 (HL-60) was 27.2 µM (inactive). The GI50 (COLO 205) was > 100 µM (inactive), the GI50 (HT-29) was > 100 µM (inactive) and the GI50 (NCI/ADR-RES) was 73.5 µM (inactive). For the same compound, the GI50 (MOLT-4) was 42.7 µM (inactive), the GI50 (M14) was > 100 µM (inactive) and the GI50 (SK-MEL-5) was 36.3 µM (inactive). For the same compound, the GI50 (DU-145) was > 100 µM (inactive), the GI50 (SF-268) was > 100 µM (inactive) and the GI50 (SNB-75) was 74.5 µM (inactive). The GI50 (HOP-62) was > 100 µM (inactive), the GI50 (MDA-N) was 58.6 µM (inactive) and the GI50 (ACHN) was > 100 µM (inactive). For the same compound, the GI50 (SK-OV-3) was 96.4 µM (inactive), the GI50 (A549) was 93.8 µM (inactive) and the GI50 (EKVX) was 24.7 µM (inactive). For the same compound, the GI50 (UACC-257) was 89.1 µM (inactive), the GI50 (KM12) was 45.2 µM (inactive) and the GI50 (SW-620) was > 100 µM (inactive). The GI50 (OVCAR-3) was > 100 µM (inactive), the GI50 (Hs-578T) was 93.8 µM (inactive) and the GI50 (SK-MEL-28) was > 100 µM (inactive). For the same compound, the GI50 (HCC 2998) was > 100 µM (inactive), the GI50 (UO-31) was 66.7 µM (inactive) and the GI50 (Malme-3M) was > 100 µM (inactive). The GI50 (SNB-19) was > 100 µM (inactive), the GI50 (SK-MEL-2) was > 100 µM (inactive) and the GI50 (K562) was 64 µM (inactive). The GI50 (TK-10) was > 100 µM (inactive), the GI50 (NCI-H23) was 55.6 µM (inactive) and the GI50 (SN12C) was > 100 µM (inactive). For the same compound, the GI50 (IGROV-1) was > 100 µM (inactive), the GI50 (NCI-H522) was 67.5 µM (inactive) and the GI50 (OVCAR-8) was > 100 µM (inactive). For the same compound, the GI50 (T47D) was 36.6 µM (inactive), the GI50 (MDA-MB-435) was 60.8 µM (inactive) and the GI50 (786-0) was 54.5 µM (inactive). The GI50 (CAKI-1) was 47.8 µM (inactive), the GI50 (LOX IMVI) was 58.6 µM (inactive) and the GI50 (OVCAR-4) was 63.8 µM (inactive). For the same compound, the GI50 (MDA-MB-231) was 81.5 µM (inactive).
